Experimental data: ChEMBL document CHEMBL3885881, “DrugMatrix”

Species on record: Rattus norvegicus
Assay: DrugMatrix - Regimen: Daily Repeat
Assay type: toxicity, organism-based, Sprague-Dawley
Parameters: regimen Daily Repeat, gender Male, age 6-8 weeks
Details: in vivo, po, route oral GAVAGE, vehicle 100 % WATER; for ABSOLUTE BASOPHIL / ABSOLUTE EOSINOPHIL / ABSOLUTE LYMPHOCYTE / ABSOLUTE MONOCYTE / ABSOLUTE SEGMENTED NEUTROPHIL / BASOPHIL / EOSINOPHIL / ERYTHROCYTE COUNT / HEMATOCRIT / HEMOGLOBIN / LEUKOCYTE COUNT / LYMPHOCYTE / MEAN CORPUSCULAR HEMOGLOBIN / MEAN CORPUSCULAR HEMOGLOBIN CONCENTRATION / MEAN CORPUSCULAR VOLUME / MONOCYTE / NEUTROPHIL / NUCLEATED RED BLOOD CELLS / PLATELET COUNT: tissue Blood; for ALANINE AMINOTRANSFERASE / ALBUMIN / ALKALINE PHOSPHATASE / ASPARTATE AMINOTRANSFERASE / BLOOD UREA NITROGEN / CARBON DIOXIDE / CHLORIDE / CHOLESTEROL / CREATINE PHOSPHOKINASE / CREATININE / GLUCOSE / LACTATE DEHYDROGENASE / LIPASE / PHOSPHORUS / POTASSIUM / SODIUM / TOTAL BILIRUBIN / TOTAL PROTEIN / URIC ACID: tissue Plasma
[1] = 100 mg/kg, 120 h, dose level Low, time 5 day
[2] = 2500 mg/kg, 72 h, dose level High, time 3 day
[3] = 2500 mg/kg, 120 h, dose level High, time 5 day

NCC1(CC(=O)O)CCCCC1 [GABAPENTIN]
ABSOLUTE BASOPHIL [1]: 0 CELLS/uL
ABSOLUTE EOSINOPHIL [1]: 0 CELLS/uL
ABSOLUTE LYMPHOCYTE [1]: 13861.67 CELLS/uL
ABSOLUTE MONOCYTE [1]: 159 CELLS/uL
ABSOLUTE SEGMENTED NEUTROPHIL [1]: 1246 CELLS/uL
BASOPHIL [1]: 0%
EOSINOPHIL [1]: 0%
ERYTHROCYTE COUNT [1]: 5.64 x10E6/uL
HEMATOCRIT [1]: 35.7%
HEMOGLOBIN [1]: 14.27 G/DL
LEUKOCYTE COUNT [1]: 15.27 x10E3/uL
LYMPHOCYTE [1]: 91%
MEAN CORPUSCULAR HEMOGLOBIN [1]: 25.33 pg
MEAN CORPUSCULAR HEMOGLOBIN CONCENTRATION [1]: 39.97 G/DL
MEAN CORPUSCULAR VOLUME [1]: 63.33 fL
MONOCYTE [1]: 1%
NEUTROPHIL [1]: 8%
NUCLEATED RED BLOOD CELLS [1]: 0 /100WBC
PLATELET COUNT [1]: 1093 x10E3/uL
ALANINE AMINOTRANSFERASE [1]: 54.67 u/L
ALBUMIN [1]: 4.37 G/DL
ALKALINE PHOSPHATASE [1]: 380.67 u/L
ASPARTATE AMINOTRANSFERASE [1]: 86 u/L
BLOOD UREA NITROGEN [1]: 15.67 mg/dL
CARBON DIOXIDE [1]: 31.33 mmol/L
CHLORIDE [1]: 101.67 MEQ/L
CHOLESTEROL [1]: 72.33 mg/dL
CREATINE PHOSPHOKINASE [1]: 410.33 u/L
CREATININE [1]: 0.16 mg/dL
GLUCOSE [1]: 172.67 mg/dL
LACTATE DEHYDROGENASE [1]: 185.67 u/L
LIPASE [1]: 9.67 u/L
PHOSPHORUS [1]: 11.93 mg/dL
POTASSIUM [1]: 6 MEQ/L
SODIUM [1]: 144.93 MEQ/L
TOTAL BILIRUBIN [1]: 0.1 mg/dL
TOTAL PROTEIN [1]: 6.07 G/DL
URIC ACID [1]: 1.23 mg/dL
ABSOLUTE BASOPHIL [2]: 0 CELLS/uL
ABSOLUTE EOSINOPHIL [2]: 0 CELLS/uL
ABSOLUTE LYMPHOCYTE [2]: 17008 CELLS/uL
ABSOLUTE MONOCYTE [2]: 0 CELLS/uL
ABSOLUTE SEGMENTED NEUTROPHIL [2]: 1925.33 CELLS/uL
BASOPHIL [2]: 0%
EOSINOPHIL [2]: 0%
ERYTHROCYTE COUNT [2]: 5.55 x10E6/uL
HEMATOCRIT [2]: 36.63%
HEMOGLOBIN [2]: 14.27 G/DL
LEUKOCYTE COUNT [2]: 18.93 x10E3/uL
LYMPHOCYTE [2]: 90%
MEAN CORPUSCULAR HEMOGLOBIN [2]: 25.7 pg
MEAN CORPUSCULAR HEMOGLOBIN CONCENTRATION [2]: 38.93 G/DL
MEAN CORPUSCULAR VOLUME [2]: 66.03 fL
MONOCYTE [2]: 0%
NEUTROPHIL [2]: 10%
NUCLEATED RED BLOOD CELLS [2]: 0.33 /100WBC
PLATELET COUNT [2]: 1357 x10E3/uL
ALANINE AMINOTRANSFERASE [2]: 70.67 u/L
ALBUMIN [2]: 4.47 G/DL
ALKALINE PHOSPHATASE [2]: 324.33 u/L
ASPARTATE AMINOTRANSFERASE [2]: 79.67 u/L
BLOOD UREA NITROGEN [2]: 15 mg/dL
CARBON DIOXIDE [2]: 30.67 mmol/L
CHLORIDE [2]: 99.67 MEQ/L
CHOLESTEROL [2]: 90 mg/dL
CREATINE PHOSPHOKINASE [2]: 203.33 u/L
CREATININE [2]: 0.15 mg/dL
GLUCOSE [2]: 164.33 mg/dL
LACTATE DEHYDROGENASE [2]: 162 u/L
LIPASE [2]: 11.33 u/L
PHOSPHORUS [2]: 13.37 mg/dL
POTASSIUM [2]: 6.75 MEQ/L
SODIUM [2]: 143.83 MEQ/L
TOTAL BILIRUBIN [2]: 0.1 mg/dL
TOTAL PROTEIN [2]: 6.13 G/DL
URIC ACID [2]: 2.23 mg/dL
ABSOLUTE BASOPHIL [3]: 0 CELLS/uL
ABSOLUTE EOSINOPHIL [3]: 0 CELLS/uL
ABSOLUTE LYMPHOCYTE [3]: 12458 CELLS/uL
ABSOLUTE MONOCYTE [3]: 100 CELLS/uL
ABSOLUTE SEGMENTED NEUTROPHIL [3]: 1842 CELLS/uL
BASOPHIL [3]: 0%
EOSINOPHIL [3]: 0%
ERYTHROCYTE COUNT [3]: 5.12 x10E6/uL
HEMATOCRIT [3]: 32.03%
HEMOGLOBIN [3]: 13.13 G/DL
LEUKOCYTE COUNT [3]: 14.4 x10E3/uL
LYMPHOCYTE [3]: 86.33%
MEAN CORPUSCULAR HEMOGLOBIN [3]: 25.67 pg
MEAN CORPUSCULAR HEMOGLOBIN CONCENTRATION [3]: 41 G/DL
MEAN CORPUSCULAR VOLUME [3]: 62.57 fL
MONOCYTE [3]: 0.67%
NEUTROPHIL [3]: 13%
NUCLEATED RED BLOOD CELLS [3]: 0 /100WBC
PLATELET COUNT [3]: 1217 x10E3/uL
ALANINE AMINOTRANSFERASE [3]: 71.67 u/L
ALBUMIN [3]: 4.3 G/DL
ALKALINE PHOSPHATASE [3]: 373 u/L
ASPARTATE AMINOTRANSFERASE [3]: 84.67 u/L
BLOOD UREA NITROGEN [3]: 19.67 mg/dL
CARBON DIOXIDE [3]: 28.67 mmol/L
CHLORIDE [3]: 102.33 MEQ/L
CHOLESTEROL [3]: 64 mg/dL
CREATINE PHOSPHOKINASE [3]: 156 u/L
CREATININE [3]: 0.17 mg/dL
GLUCOSE [3]: 148.33 mg/dL
LACTATE DEHYDROGENASE [3]: 96.67 u/L
LIPASE [3]: 8 u/L
PHOSPHORUS [3]: 11.7 mg/dL
POTASSIUM [3]: 6.37 MEQ/L
SODIUM [3]: 144.6 MEQ/L
TOTAL BILIRUBIN [3]: 0.17 mg/dL
TOTAL PROTEIN [3]: 6.03 G/DL
URIC ACID [3]: 1.33 mg/dL
